Measurements published in ChEMBL document CHEMBL3525922, “Significance of reductive metabolism in human intestine and quantitative prediction of intestinal first-pass metabolism by cytosolic reductive enzymes” (Drug Metab Dispos, 2013).

How the values were obtained:
Liver [1] = experiment: Drug level in human liver S9 fraction treated with 10 uM mebendazole after 19.80 to 20.76 mins by HPLC-MS analysis; format: ADME, subcellular
[2] = Unbound intrinsic clearance in human intestinal cytosol at 50 to 1000 nM after 30 to 60 mins by HPLC-MS/MS analysis; format: ADME, Intestine; details: 1 µM
[3] = Unbound intrinsic clearance in human intestinal microsomes at 50 to 1000 nM after 30 to 60 mins by HPLC-MS/MS analysis; format: ADME, Intestine, Microsome; details: 1 µM
[4] = Metabolic stability in human intestinal cytosol at 200 nM after 60 mins in presence of menadione; format: ADME, Intestine; details: 1 h, 0.2 µM
[5] = Unbound intrinsic clearance in human intestinal S9 fraction at 50 to 1000 nM after 30 to 60 mins by HPLC-MS/MS analysis; format: ADME, Intestine; details: s9, 1 µM
Liver [6] = experiment: Unbound intrinsic clearance in human liver S9 fraction at 50 to 1000 nM after 30 to 60 mins by HPLC-MS/MS analysis; format: ADME, subcellular; details: s9, 1 µM
[7] = Unbound intrinsic clearance in human intestinal S9 fraction at 50 to 1000 nM after 30 to 60 mins by HPLC-MS/MS analysis in presence of NADPH; format: ADME, Intestine; details: s9, 1 µM
Liver microsome [8] = experiment: Unbound intrinsic clearance in human liver microsomes at 50 to 1000 nM after 30 to 60 mins by HPLC-MS/MS analysis; format: ADME; details: 1 µM
Liver cytosol [9] = experiment: Unbound intrinsic clearance in human liver cytosol at 50 to 1000 nM after 30 to 60 mins by HPLC-MS/MS analysis; format: ADME, tissue-based; details: 1 µM
[10] = Unbound intrinsic clearance in human intestinal S9 fraction at 50 to 1000 nM after 30 to 60 mins by HPLC-MS/MS analysis in presence of NADH; format: ADME, Intestine; details: s9, 1 µM
[11] = Metabolic stability in human intestinal S9 fraction assessed as compound remaining at 50 to 1000 nM after 60 mins by HPLC-MS/MS analysis; format: ADME, Intestine; details: read-out: Stability
[12] = Drug metabolism in human intestinal cytosol at 200 nM after 60 mins in presence of flufenamic acid; format: ADME, Intestine; details: 1 h, 0.2 µM
[13] = Drug metabolism in human intestinal cytosol at 200 nM after 60 mins in presence of ondansetron; format: ADME, Intestine; details: 1 h, 0.2 µM
[14] = Intrinsic clearance in human intestinal S9 fraction at 50 to 1000 nM after 60 mins by HPLC-MS/MS analysis; format: ADME, Intestine; details: s9, 1 h, 1 µM
[15] = Apparent permeability of the compound at 50 uM at pH 7.4 after 240 mins by PAMPA; format: physicochemical
[16] = Intrinsic clearance in human intestinal microsomes at 50 to 1000 nM after 60 mins by HPLC-MS/MS analysis; format: ADME, Intestine, Microsome; details: 1 h, 1 µM
[17] = human, s9, 1 h, 1 µM
[18] = Drug metabolism in human intestinal S9 fraction assessed as reductive metabolite formation at 10 uM after 20.69 mins by HPLC-MS analysis; format: ADME, Intestine; details: s9, 0.344833 h
[19] = Drug metabolism in human intestinal cytosol at 200 nM after 30 mins in presence of flufenamic acid; format: ADME, Intestine; details: 0.5 h, 0.2 µM
[20] = Drug metabolism in human liver S9 fraction assessed as reductive metabolite formation at 10 uM after 20.76 mins by HPLC-MS analysis; format: ADME, subcellular; details: s9, 0.346 h
[21] = Drug metabolism in human intestinal cytosol assessed as reductive metabolite formation at 10 uM after 20.74 mins by HPLC-MS analysis; format: ADME, Intestine; details: 0.345667 h
[22] = Metabolic stability in human intestinal cytosol at 200 nM after 30 mins in presence of menadione; format: ADME, Intestine; details: 0.5 h, 0.2 µM
[23] = Metabolic stability in human intestinal microsomes assessed as compound remaining at 50 to 1000 nM after 60 mins by HPLC-MS/MS analysis; format: ADME, Intestine, Microsome; details: read-out: Stability
Liver microsome [24] = experiment: Drug metabolism in human liver microsomes assessed as hydrolyzed metabolite formation at 10 uM after 19.83 mins by HPLC-MS analysis; format: ADME; details: 0.3305 h
[25] = Drug metabolism in human intestinal cytosol at 200 nM after 30 mins in presence of ondansetron; format: ADME, Intestine; details: 0.5 h, 0.2 µM
[26] = Drug metabolism in human liver S9 fraction assessed as hydrolyzed metabolite formation at 10 uM after 19.80 mins by HPLC-MS analysis; format: ADME, subcellular; details: s9, 0.33 h
[27] = Metabolic stability in human intestinal S9 fraction assessed as compound remaining at 50 to 1000 nM after 60 mins by HPLC-MS/MS analysis in presence of NADH; design: dose or concentration left out as unconfirmed
Liver cytosol [28] = experiment: Drug metabolism in human liver cytosol assessed as reductive metabolite formation at 10 uM after 20.80 mins by HPLC-MS analysis; format: ADME, tissue-based; details: 0.346667 h
[29] = target: T1, carbonyl reductase (Carbonyl reductase [NADPH] 1) (Homo sapiens, UniProt P16152); experiment: Activity of carbonyl reductase in liver cytosol (unknown origin) assessed as enzyme-mediated drug metabolism; format: ADME, tissue-based
T1 sequence (P16152 whole entry): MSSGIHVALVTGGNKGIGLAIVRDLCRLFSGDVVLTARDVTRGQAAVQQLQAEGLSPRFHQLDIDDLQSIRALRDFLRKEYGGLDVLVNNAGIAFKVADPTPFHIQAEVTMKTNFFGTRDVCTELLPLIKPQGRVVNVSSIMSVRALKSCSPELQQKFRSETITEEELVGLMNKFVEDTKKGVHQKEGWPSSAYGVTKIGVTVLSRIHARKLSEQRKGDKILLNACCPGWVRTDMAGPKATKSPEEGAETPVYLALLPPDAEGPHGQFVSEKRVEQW

[30] = target: T1, carbonyl reductase (Carbonyl reductase [NADPH] 1); experiment: Activity of recombinant carbonyl reductase (unknown origin); format: ADME
[31] = Drug level in human intestinal S9 fraction treated with 10 uM mebendazole 20.69 mins by HPLC-MS analysis; format: ADME, Intestine; details: s9, 0.344833 h
Liver cytosol [32] = experiment: Drug level in human liver cytosol treated with 10 uM mebendazole after 20.80 mins by HPLC-MS analysis; format: ADME, tissue-based; details: 0.346667 h
[33] = Drug level in human intestinal cytosol treated with 10 uM mebendazole after 20.74 mins by HPLC-MS analysis; format: ADME, Intestine; details: 0.345667 h

For Nc1nc2ccc(C(=O)c3ccccc3)cc2[nH]1, the Drug metabolism (Liver [1]) was “metabolite_detected”.

For O=C1Cc2cc(CCN3CCN(c4nsc5ccccc45)CC3)c(Cl)cc2N1 [ZIPRASIDONE], the CL free [2] was 15 µL/min/mg, the CL free [3] was 29 µL/min/mg and the Stability [4] was “Stable”. The CL free [5] was 28 µL/min/mg, the CL free (Liver [6]) was 89 µL/min/mg and the CL free [7] was 28 µL/min/mg. The CL free (Liver microsome [8]) was 118 µL/min/mg, the CL free (Liver cytosol [9]) was 23 µL/min/mg and the CL free [10] was 15 µL/min/mg. The remaining at 1 h, up to 1 µM [11] was greater than 90%, the Drug metabolism [12] was “metabolite_detected” and the Drug metabolism [13] was “metabolite_detected”. The CL [14] was less than 1.8 µL/min/mg and the Papp at 4 h, 50 µM [15] was 67.2 ×10⁻⁶ cm/s.

In the case of COC(=O)Nc1nc2ccc(C(=O)c3ccccc3)cc2[nH]1 [MEBENDAZOLE], the CL [16] is reported as less than 8.8 µL/min/mg, the CL [17] is reported as less than 1.8 µL/min/mg and the Drug metabolism [18] is reported as “metabolite_detected”. For the same molecule, the Drug metabolism [19] was “metabolite_detected”, the Drug metabolism [20] was “metabolite_detected” and the Drug metabolism [21] was “metabolite_detected”. The Stability [22] was “Stable”, the remaining at 1 h, up to 1 µM [23] was greater than 90% and the CL free (Liver microsome [8]) was 9 µL/min/mg. For the same molecule, the Drug metabolism (Liver microsome [24]) was “metabolite_detected”, the Drug metabolism [25] was “metabolite_detected” and the remaining at 1 h, up to 1 µM [11] was greater than 90%. For the same molecule, the Drug metabolism [26] was “metabolite_detected”, the remaining at 1 h [27] was greater than 90% and the Drug metabolism (Liver cytosol [28]) was “metabolite_detected”. For the same molecule, the CL [14] was less than 1.8 µL/min/mg and the Papp at 4 h, 50 µM [15] was 48.5 ×10⁻⁶ cm/s.

With O=C(CCCN1CCC(O)(c2ccc(Cl)cc2)CC1)c1ccc(F)cc1 [HALOPERIDOL] the Km [29] was 250 µM, the Drug metabolism [12] was “metabolite_detected” and the Km [30] was 1200 µM. The Drug metabolism [13] was “metabolite_detected” and the Papp at 4 h, 50 µM [15] was 33.7 ×10⁻⁶ cm/s.

For COC(=O)Nc1nc2ccc(C(O)c3ccccc3)cc2[nH]1 (stereo unspecified), the Drug metabolism (Liver [1]) was “metabolite_detected”, the Drug metabolism [31] was “metabolite_detected” and the Drug metabolism (Liver cytosol [32]) was “metabolite_detected”. For the same molecule, the Drug metabolism [33] was “metabolite_detected”.
